Measured values published in patent publication US12077501B2, “Compounds and compositions for intracellular delivery of agents” (ModernaTX, Inc., priority 2017, dated 2024).

How the values were obtained:
[1] = Particle size and polydispersity index of nanoparticle compositions (Zetasizer Nano ZS); assay type: physicochemical
Experimental: A Zetasizer Nano ZS (Malvem Instruments Ltd, Malvem, Worcestershire, UK) can be used to determine the particle size, the polydispersity index (PDI) and the zeta potential of the nanoparticle compositions in 1×PBS in determining particle size and 15 mM PBS in determining zeta potential.

[2] = Encapsulation efficiency of RNA (QUANT-IT RIBOGREEN RNA assay); assay type: physicochemical
Outline: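 Samples diluted to about 5 μg/mL RNA in TE buffer pH 7.5, treated with buffer or 2% Triton X-100 for 15 min at 37° C, then stained with RiboGreen (1:100). Fluorescence at about 480/520 nm, blank-subtracted; free RNA fraction is intact over Triton-disrupted signal.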

[3] = pKa of nanoparticle compositions; assay type: physicochemical; conditions: Table 1c
[4] = Lipid purity change after storage in EtOH for 96 h at 25 or 37 °C; assay type: physicochemical
Outline: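 Lipid stability was assessed as purity after storage in ethanol for 96 h at 25 °C or 37 °C.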

hEPO expression [5] = assay: hEPO expression in CD-1 mice compared with MC3; assay type: in vivo; conditions: intravenous, 0.5 mpk, Table 7e
Text: (§1) In contrast, hEPO expression in rats induced by administration of a nanoparticle composition including a compound according to one of formulae (I), (Ia1)-(Ia6), (Ib), (II), (IIa), (III), and (IIIa) was substantially […] than that measured for MC3. […] Tables 7c and 7d show additional protein expressions and clearance data from compositions with various compounds disclosed herein as compared to with MC3. Tables 7e, 7f and 7g show hEPO expression data in CD-1 mice at a dose of 0.5 mpk.

[6] = Lipid clearance: % dose remaining in liver of CD-1 mice; assay type: in vivo; conditions: intravenous, 0.5 mg/kg, CD-1 mouse, Table 8a
Outline: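 Nanoparticle compositions of the disclosed lipids given intravenously and benchmarked against MC3. Protein expression reported as AUC (p/s*h) and clearance as % dose remaining in liver of CD-1 mice; hEPO expression in CD-1 mice measured at 0.5 mpk.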

hEPO expression [7] = assay: hEPO (miR126 + miR142) mRNA expression, Tables 8b-8e; assay type: in vivo; conditions: for AUC: Table 8b; for AUC (mIU/mL*h): lipid:Chol:PEG 1 50:47.5:2.5, Table 8e
[8] = Lipid clearance: % dose remaining, Tables 7c and 8b-8e (species not given); assay type: in vivo
Text: as §1

[9] = Table 1c, nanoparticle compositions
[10] = Table 1d, Formulated with lipid:Chol:DOPE:PEG 1 40:38.5:20:1.5
[11] = lipid:Chol:PEG 1 50:47.5:2.5, Table 8e

Row | Compound | PDI [1, 9] | Size (nm) [1, 9] [nm] | EE (%) [2, 9] [%] | pKa [3] | Lipid % change purity in EtOH, 25° C., 96 h [4] [%] | Lipid % change purity in EtOH, 37° C., 96 h [4] [%] | % Dose Remaining 24 hr [6] [%] | % Dose Remaining (liver, 24 h) [8, 11] [%] | AUC (p/s*h) CD-1 mice 0.5 mpk (hEPO expression [5]) [p/s*h] | AUC (mIU/mL*h) (hEPO expression [7]) | further results
1 | CCCCCCCCCCCCCCN(CCCOC(=O)CCCCCCCCC)CCC1CCCN(C(=O)CN(CCCCCCCCC)CCN(CCCCCCCCC)CCCCCCCCC)C1 (stereo not drawn) [Compound 122, 3-((2-(1-(N-(2-(Dinonylamino)ethyl)-N-nonylglycyl)piperidin-3-yl)ethyl)(tetradecyl)amino)propyl decanoate] | 0.23 | 77.1 | 99.1 | 6.44 | 1 | 4.1 | 0.05 | – | 5.71E+07 | – | –
2 | CCCCCCCCCCCCCCN(CCCOC(=O)CCCCCCCCC)CCC1CCN(C(=O)CN(CCCCCCCCC)CCN(CCCCCCCCC)CCCCCCCCC)C1 (stereo not drawn) [Compound 126, 3-((2-(1-(N-(2-(Dinonylamino)ethyl)-N-nonylglycyl)pyrrolidin-3-yl)ethyl)(tetradecyl)amino)propyl decanoate] | 0.24 | 87.0 | 98.7 | 6.76 | 0.6 | 2.2 | 0.09 | – | 6.24E+07 | – | –
3 | CCCCCCCCCCCCCCN(CCCCCCCCCCCC(=O)OC)CCC1CCN(C(=O)CN(CCCCCCCCC)CCN(CCCCCCCCC)CCCCCCCCC)C1 (stereo not drawn) [Compound 127, Methyl 12-((2-(1-(N-(2-(dinonylamino)ethyl)-N-nonylglycyl)pyrrolidin-3-yl)ethyl)(tetradecyl)amino)dodecanoate] | 0.20 | 79.8 | 99.5 | 6.81 | 2.7 | 2.9 | 0.86 | – | 3.45E+07 | – | –
4 | CCCCCCCCCN(CCCCCCCCC)CCOC(=O)C1CCC(C(=O)OCCN(CCCCCCCCC)CCN(CCCCCCCCC)CCCCCCCCC)CC1 (stereo not drawn) [Compound 128, 1-(2-(Dinonylamino)ethyl) 4-(2-((2-(dinonylamino)ethyl)(nonyl)amino)ethyl) cyclohexane-1,4-dicarboxylate] | 0.20 | 68.0 | 97.1 | 4.93 | 6.9 | 12.2 | 52.19 | – | 3.04E+05 | – | –
5 | CCCC/C=C\CCCCCCCCN(CCCOC(=O)CCCCCCCCC)CC(=O)N1CCN(C(=O)CN(CCCCCCCCC)CCN(CCCCCCCCC)CCCCCCCCC)CC1 [Compound 140, (Z)-3-((2-(4-(N-(2-(Dinonylamino)ethyl)-N-nonylglycyl)piperazin-1-yl)-2-oxoethyl)(tetradec-9-en-1-yl)amino)propyl Decanoate] | – | – | – | – | – | – | – | – | – | – | PDI [1, 10]: 0.14; Size (nm) [1, 10]: 131.1 nm; EE (%) [2, 10]: 86.9%; AUC (hEPO expression [7]): 4.55e+07 pg·h/mL; % Dose Remaining (liver, 24 h) ([8]; Table 8b): 1.66%
6 | CCCCCCCCCCCCCCN(C/C=C\COC(=O)CCCCCCCC)CC(=O)N1CCN(C(=O)CN(CCCCCCCCC)CCN(CCCCCCCCC)CCCCCCCCC)CC1 [Compound 141, (Z)-4-((2-(4-(N-(2-(dinonylamino)ethyl)-N-nonylglycyl)piperazin-1-yl)-2-oxoethyl)(tetradecyl)amino)but-2-en-1-yl nonanoate] | – | – | – | – | – | – | – | – | – | – | PDI [1, 10]: 0.15; Size (nm) [1, 10]: 131.5 nm; EE (%) [2, 10]: 97.6%; AUC (hEPO expression [7]): 2.7e+07 pg·h/mL; % Dose Remaining (liver, 24 h) ([8]; Table 8b): 1.41%
7 | CCCCCCCCCCN(CCCCCCCCCC)CCCC(=O)N1CCN(C(=O)CCCN(CCCCCCCCCC)CCCCCCCCCC)CC1 [Compound 146, 1,1′-(Piperazine-1,4-diyl)bis(4-(didecylamino)butan-1-one)] | – | – | – | – | – | – | – | – | – | – | AUC (hEPO expression [7]): 1.27e+07 pg·h/mL; % Dose Remaining (liver, 24 h) ([8]; Table 8b): 81.04%
8 | CCCCCCCCCN(CCCCCCCCC)CCN(CCCCCCCCC)CC(=O)N(C)CCN(C)C(=O)CN(CCCCCCCCC)CCCCCCCCC [Compound 151, 2-(Dinonylamino)-N-(2-(2-((2-(dinonylamino)ethyl)(nonyl)amino)-N-methylacetamido)ethyl)-N-methylacetamide] | 0.18 | 77.4 | 98.8 | 7.46 | −0.7 | 2.1 | 75.96 | – | 1.54E+08 | – | –
9 | CCCCCCCCCN(CCCCCCCCC)CCN(CCCCCCCCC)CC(=O)N(C)CCN(C)C(=O)CN(CCCCCCCCC)CCCC(=O)OCCCCC [Compound 152, Pentyl 8,11-dimethyl-5,14,17-trinonyl-7,12-dioxo-5,8,11,14,17-pentaazahexacosanoate] | 0.16 | 79.1 | 98.5 | 7.48 | 0 | 2 | 34.01 | – | 1.09E+08 | – | –
10 | CCCCCCCCCN(CCCCCCCCC)CCN(CCCCCCCCC)CC(=O)NCCNC(=O)CN(CCCCCCCCC)CCCCCCCCC [Compound 153, 2-(dinonylamino)-N-(2-(2-((2-(dinonylamino)ethyl)(nonyl)amino)acetamido)ethyl)acetamide] | – | – | – | – | – | – | – | – | – | – | PDI [1, 10]: 0.23; Size (nm) [1, 10]: 116.7 nm; EE (%) [2, 10]: 97.2%; AUC (hEPO expression [7]): 5.62e+07 pg·h/mL; % Dose Remaining (liver, 24 h) ([8]; Table 8b): 84.71%

Further lines, with some results ahead:

Row | PDI [1, 9] | Size (nm) [1, 9] [nm] | EE (%) [2, 9] [%] | pKa [3] | Lipid % change purity in EtOH, 25° C., 96 h [4] [%] | Lipid % change purity in EtOH, 37° C., 96 h [4] [%] | % Dose Remaining 24 hr [6] [%] | % Dose Remaining (liver, 24 h) [8, 11] [%] | Compound | AUC (p/s*h) CD-1 mice 0.5 mpk (hEPO expression [5]) [p/s*h] | AUC (mIU/mL*h) (hEPO expression [7]) | further results
11 | 0.22 | 75.7 | 98.6 | 6.50 | 0.3 | 1.5 | 13.97 | – | CCCCCCCCCCCCCCN(CCCCCC(=O)OCCCCCCC)CCC1CCCN(C(=O)CN(CCCCCCCCC)CCN(CCCCCCCCC)CCCCCCCCC)C1 (stereo not drawn) [Compound 121, Heptyl 6-((2-(1-(N-(2-(dinonylamino)ethyl)-N-nonylglycyl)piperidin-3-yl)ethyl)(tetradecyl)amino)hexanoate] | 2.84E+07 | – | –
12 | 0.21 | 92.7 | 99.2 | 6.94 | −4.6 | −3.5 | 5.60 | – | CCCCCCCCCCCCCCN(CCCCCCCC(=O)OCCCCC)CCC1CCN(C(=O)CN(CCCCCCCCC)CCN(CCCCCCCCC)CCCCCCCCC)C1 (stereo not drawn) [Compound 124, Pentyl 8-((2-(1-(N-(2-(dinonylamino)ethyl)-N-nonylglycyl)pyrrolidin-3-yl)ethyl)(tetradecyl)amino)octanoate] | 3.88E+07 | – | –
13 | – | – | – | – | – | – | – | 8.55 | CCCCCCCCCOC(=O)CCCCCCCN(CCCCCCCC(=O)OCCCCCCCCC)CCOCCOCCN(CCCCCCCCC)CCCCCCCCC [Compound 173, Nonyl 18-nonyl-9-(8-(nonyloxy)-8-oxooctyl)-12,15-dioxa-9,18-diazaheptacosanoate] | – | 6.70E+06 | –
14 | – | – | – | – | – | – | – | 30.05 | CCCCCCCCCOC(=O)CCCCCCCN(CCCCCCCC(=O)OC(CCCCCCCC)CCCCCCCC)CCOCCOCCN(CCCCCCCCC)CCCCCCCCC [Compound 174, Heptadecan-9-yl 18-nonyl-9-(8-(nonyloxy)-8-oxooctyl)-12,15-dioxa-9,18-diazaheptacosanoate] | – | 5.03E+07 | –
15 | – | – | – | – | – | – | – | 35.91 | CCCCCCCCCOC(=O)CCCCCCCN(CCCCCCCC(=O)OCCCCCCCCC)CCCCCN(CCCCCCCCC)CCCCCCCCC [Compound 177, Dinonyl 8,8′-((5-(dinonylamino)pentyl)azanediyl)dioctanoate] | – | 6.84E+07 | –
16 | – | – | – | – | – | – | – | 44.93 | CCCCCCCCCOC(=O)CCCCCCCN(CCCCCCCC(=O)OC(CCCCCCCC)CCCCCCCC)CCCCCN(CCCCCCCCC)CCCCCCCCC [Compound 178, Heptadecan-9-yl 8-((5-(dinonylamino)pentyl)(8-(nonyloxy)-8-oxooctyl)amino)octanoate] | – | 8.44E+07 | –
17 | – | – | – | – | – | – | – | 26.22 | CCCCCCCCCOC(=O)CCCCCCCN(CCCCCCCC(=O)OCCCCCCCCC)CCOCCN(CCCCCCCCC)CCCCCCCCC [Compound 179, Dinonyl 8,8′-((2-(2-(dinonylamino)ethoxy)ethyl)azanediyl)dioctanoate] | – | 7.79E+06 | –
18 | – | – | – | – | – | – | – | 50.47 | CCCCCCCCCOC(=O)CCCCCCCN(CCCCCCCC(=O)OC(CCCCCCCC)CCCCCCCC)CCOCCN(CCCCCCCCC)CCCCCCCCC [Compound 180, Heptadecan-9-yl 8-((2-(2-(dinonylamino)ethoxy)ethyl)(8-(nonyloxy)-8-oxooctyl)amino)octanoate] | – | 6.53E+07 | –
